Experimental data taken from article PMC8880671, “Facial Synthesis and Bioevaluation of Well-Defined OEGylated Betulinic Acid-Cyclodextrin Conjugates for Inhibition of Influenza Infection” (Molecules, 2022).
Where two headings read alike, the source gives them in different places.

Experiments:
[1] = system: influenza A/WSN/33 (H1N1) virus; assay: microbe, parasite or virus in culture; type: cell-based; conditions: for inhibition rate against influenza virus A/WSN/33 (H1N1): CPE-based screening at 20 μM; for IC50: read-out: IC50 (half maximal inhibitory concentration)
MDCK cells [2] = conditions: read-out: CC50 (cytotoxicity concentration for 50% cell death); cited from earlier work
A/PR/8/34 virus = system: A/PR/8/34 virus; parameters: method as in PMID 26157551; conditions: 10 μM; cited from earlier work
[3] = Cytotoxicity test, CellTiter-Glo luminescent cell viability assay; conditions: dog, MDCK cells
influenza virus [4] = system: influenza virus; parameters: method as in PMID 28792469; conditions: 50 µg/mL; cited from earlier work
influenza virus [5] = system: influenza virus; parameters: method as in doi:10.1134/S1068162018050059; conditions: read-out: EC50, anti-influenza activity; cited from earlier work
MDCK cells [6] = assay: Cytotoxicity test, CellTiter-Glo luminescent cell viability assay; conditions: for MDCK cell viability: 100 µM, 36 h, CellTiter-Glo; for CC50: read-out: CC50 (cytotoxicity concentration for 50% cell death), MDCK cells
in vitro = conditions: dog
[7] = system: avian influenza KBNP-0028 (H9N2) virus; conditions: read-out: EC50 against avian influenza KBNP-0028 (H9N2) virus; cited from earlier work

Hexakis 6-Deoxy-6-[4-N-[(2-(2-(2-Propyn-1-yloxy)ethoxy)ethyl)-3β-hydroxy-lup-20(29)-en-28-oyl]-aminomethyl-1H-1,2,3-triazol-1-yl]-2,3-di-O-acetyl-α-CD [Compound 57]
inhibition rate against influenza virus A/WSN/33 (H1N1) [1]: over 50%

C=C(C)[C@@H]1CC[C@]2(C(=O)O)CC[C@]3(C)[C@H](CC[C@@H]4[C@@]5(C)CC[C@H](O)C(C)(C)[C@@H]5CC[C@]43C)[C@@H]12 [BA, Betulinic acid]
CC50 (MDCK cells [2]): 31.9 µM | anti-influenza activity against A/PR/8/34 virus (A/PR/8/34 virus): ~ 30% | viability at 36 h, 100 µM [3]: 8.5% | anti-influenza activity (inhibition) (influenza virus [4]): 27.6% | EC50 (influenza virus [5]): > 219 µM

Hexakis 6-Deoxy-6-[4-N-[(3,6,9,12-Tetraoxapentadec-14-yn-1-yl)-3β-hydroxy-lup-20(29)-en-28-oyl]-aminomethyl-1H-1,2,3-triazol-1-yl]-α-CD [Compound 78]
inhibition rate against influenza virus A/WSN/33 (H1N1) [1]: over 50%

Hexakis 6-Deoxy-6-[4-N-[(2-(2-(2-Propyn-1-yloxy)ethoxy)ethyl)-3β-hydroxy-lup-20(29)-en-28-oyl]-aminomethyl-1H-1,2,3-triazol-1-yl]-α-CD [Compound 75]
IC50 ([1]; A/WSN/33 virus in MDCK cells, MOI 0.2, 36 h): 15.6 ± 3.32 µM | inhibition rate against influenza virus A/WSN/33 (H1N1) [1]: over 50%

Heptakis 6-Deoxy-6-[4-N-[(3,6,9,12,15,18-Hexaoxaheneicos-20-yn-1-yl)-3β-hydroxy-lup-20(29)-en-28-oyl]-aminomethyl-1H-1,2,3-triazol-1-yl]-β-CD [Compound 82]
MDCK cell viability (MDCK cells [6]): 67%

CC(=O)N[C@H]1[C@H]([C@H](O)[C@H](O)CO)OC(C(=O)O)=C[C@@H]1N=C(N)N [Zanamivir, reference compound]
CC50 (in vitro): > 100 µM | SI (Selectivity Index, ratio of CC50 to IC50) [1]: >79.4 | IC50 ([1]; Influenza A virus, MDCK, 36 h): 1.26 ± 0.36 µM

C=C(C)[C@@H]1CC[C@]2(C=O)CC[C@]3(C)[C@H](CC[C@@H]4[C@@]5(C)CC[C@H](O)C(C)(C)[C@@H]5CC[C@]43C)[C@@H]12 [Betulinic aldehyde]
EC50 [7]: 28.4 µM

Octakis 6-Deoxy-6-[4-N-[(3,6,9,12-Tetraoxapentadec-14-yn-1-yl)-3β-hydroxy-lup-20(29)-en-28-oyl]-aminomethyl-1H-1,2,3-triazol-1-yl]-γ-CD [Compound 80]
MDCK cell viability (MDCK cells [6]): 64%

Heptakis 6-Deoxy-6-[4-N-[(2-(2-(2-Propyn-1-yloxy)ethoxy)ethyl)-3β-hydroxy-lup-20(29)-en-28-Oyl]-aminomethyl-1H-1,2,3-triazol-1-Yl]-2,3-di-O-acetyl-β-CD [Compound 58]
MDCK cell viability (MDCK cells [6]): 68%

Heptakis 6-Deoxy-6-[4-N-(3β-Hydroxy-lup-20(29)-en-28-oyl)-aminomethyl-1H-1,2,3-triazol-1-yl]-β-CD [Compound 70]
IC50 [1]: 7.48 ± 1.93 µM | CC50 (MDCK cells [6]): > 100 µM

Octakis 6-Deoxy-6-[4-N-(3β-Hydroxy-lup-20(29)-en-28-oyl)-aminomethyl-1H-1,2,3-triazol-1-yl]-γ-CD [Compound 71]
IC50 [1]: 7.59 ± 1.57 µM | CC50 (MDCK cells [6]): > 100 µM

Hexakis 6-Deoxy-6-[4-N-(3β-Hydroxy-lup-20(29)-en-28-oyl)-aminomethyl-1H-1,2,3-triazol-1-yl]-α-CD [Compound 69]
IC50 [1]: 9.82 ± 1.74 µM | CC50 (MDCK cells [6]): > 100 µM
